Assay results: article PMC5070805 (Journal of medicinal chemistry, 2015)
Where a SMILES comes first, the peptide text is derived from it. Bridges are numbered along the chain shown (N, C = ends). [ ]: non-standard residue; d: D form. Nle = CCCC[C@H](N)C(=O)O

How the values were obtained:
hMC4R [1] = target: T1, hMC4R (Homo sapiens, UniProt P32245); assay: Adenylate cyclase assay; format: cell-based; conditions: cAMP, text description
hMC1R [2] = target: T2, hMC1R (Homo sapiens, UniProt Q01726); assay: Competition binding vs 125I-[Nle4,DPhe7]-α-MSH on whole HEK293 cells; conditions: text description
T2 sequence (Q01726 whole entry): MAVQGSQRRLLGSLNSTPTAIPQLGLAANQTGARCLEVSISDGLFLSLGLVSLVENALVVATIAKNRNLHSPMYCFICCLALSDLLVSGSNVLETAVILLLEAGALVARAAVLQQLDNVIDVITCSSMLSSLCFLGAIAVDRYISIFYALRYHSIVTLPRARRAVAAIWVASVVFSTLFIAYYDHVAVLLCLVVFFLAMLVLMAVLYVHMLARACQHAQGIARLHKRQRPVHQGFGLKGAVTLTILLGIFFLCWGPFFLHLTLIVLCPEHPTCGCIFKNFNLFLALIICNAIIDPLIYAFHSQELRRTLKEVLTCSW

hMC3R [3] = target: T3, hMC3R (Homo sapiens, UniProt P41968); assay: Adenylate cyclase assay; format: cell-based; conditions: cAMP, text description
T3 sequence (P41968 whole entry): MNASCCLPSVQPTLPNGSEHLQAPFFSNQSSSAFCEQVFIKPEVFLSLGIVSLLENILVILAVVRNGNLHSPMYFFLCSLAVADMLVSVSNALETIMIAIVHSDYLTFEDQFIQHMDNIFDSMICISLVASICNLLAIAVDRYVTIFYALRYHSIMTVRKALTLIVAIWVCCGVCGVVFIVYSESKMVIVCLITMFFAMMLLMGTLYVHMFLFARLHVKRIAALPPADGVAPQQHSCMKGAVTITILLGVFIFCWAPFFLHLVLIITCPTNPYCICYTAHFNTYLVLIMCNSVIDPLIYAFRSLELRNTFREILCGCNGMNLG

hMC1R [4] = target: T2, hMC1R; assay: Adenylate cyclase assay; format: cell-based; conditions: cAMP, text description
hMC3R [5] = target: T3, hMC3R; assay: Competition binding vs 125I-[Nle4,DPhe7]-α-MSH on whole HEK293 cells; conditions: text description
hMC4R [6] = target: T1, hMC4R; assay: as above; conditions: text description
hMC5R [7] = target: T4, hMC5R (Homo sapiens, UniProt P33032); assay: Adenylate cyclase assay; format: cell-based; conditions: cAMP, text description
T4 sequence (P33032 whole entry): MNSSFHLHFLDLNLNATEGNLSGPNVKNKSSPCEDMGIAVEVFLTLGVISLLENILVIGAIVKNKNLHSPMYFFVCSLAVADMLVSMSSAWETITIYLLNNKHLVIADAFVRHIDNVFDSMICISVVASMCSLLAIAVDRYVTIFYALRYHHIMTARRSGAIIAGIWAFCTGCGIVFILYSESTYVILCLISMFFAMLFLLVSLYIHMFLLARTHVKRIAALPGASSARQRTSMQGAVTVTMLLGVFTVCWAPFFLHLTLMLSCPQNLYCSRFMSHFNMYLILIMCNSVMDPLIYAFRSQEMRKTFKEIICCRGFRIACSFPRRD

hMC5R [8] = target: T4, hMC5R; assay: Competition binding vs 125I-[Nle4,DPhe7]-α-MSH on whole HEK293 cells; conditions: text description

T1 sequence (P32245 whole entry): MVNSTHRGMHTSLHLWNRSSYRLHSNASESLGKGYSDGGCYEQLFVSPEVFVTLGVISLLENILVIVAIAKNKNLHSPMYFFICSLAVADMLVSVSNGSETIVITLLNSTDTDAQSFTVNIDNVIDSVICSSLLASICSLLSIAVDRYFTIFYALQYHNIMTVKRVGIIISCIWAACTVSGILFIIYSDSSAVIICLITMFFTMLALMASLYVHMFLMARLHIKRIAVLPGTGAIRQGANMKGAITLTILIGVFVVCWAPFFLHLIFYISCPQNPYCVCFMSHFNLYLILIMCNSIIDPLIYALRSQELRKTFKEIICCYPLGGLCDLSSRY

Row | functional activity at hMC4R (in words) (hMC4R [1]) | binding at hMC1R (in words) (hMC1R [2]) | functional activity at hMC3R (in words) (hMC3R [3]) | functional activity at hMC1R (in words) (hMC1R [4]) | binding at hMC3R (in words) (hMC3R [5]) | binding at hMC4R (in words) (hMC4R [6]) | functional activity at hMC5R (in words) (hMC5R [7]) | binding at hMC5R (in words) (hMC5R [8]) | SMILES
1 | undetectable activity | no appreciable binding | undetectable activity | low potency | low binding affinity | low binding affinity | undetectable activity | no appreciable binding | CCCC[C@H](NC(C)=O)C(=O)N[C@H]1CC(=O)NCCCC[C@@H](C(N)=O)NC(=O)[C@H](Cc2c[nH]c3ccccc23)NC(=O)[C@H](CCCNC(=N)N)NC(=O)[C@@H](Cc2ccccc2)NC(=O)[C@@H]2CCCN2C(=O)[C@@H]2CCCN2C1=O [compound 1, Ac-Nle-c[D-P-P-DPhe-R-W-K]-NH2] (Ac-[Nle]DPP[dF]RWK-NH2; lactam 2-8)
2 | weak and moderate activation | no affinity | no stimulation of cAMP accumulation | weak and moderate activation | weak binding | no affinity | weak and moderate activation | no affinity | CCCC[C@H](NC(C)=O)C(=O)N[C@H]1CC(=O)NCCCC[C@@H](C(N)=O)NC(=O)[C@H](Cc2c[nH]c3ccccc23)NC(=O)[C@H](CCCNC(=N)N)NC(=O)[C@@H](Cc2ccccc2)NC(=O)[C@@H]2CCCN2C(=O)[C@H](Cc2c[nH]c3ccccc23)NC1=O [compound 3, Ac-Nle-c[D-W-P-DPhe-R-W-K]-NH2]
